In patent US20080051387A1, “TETRAHYDROPYRIDO[3,4-D]PYRIMIDINES AND RELATED ANALOGUES” (priority 2006, published 2008) one finds inhibition data, which are given here for 30 compounds.

In the assay the target is T1, chimeric human H3 receptor (Homo sapiens, UniProt Q9Y5N1).
T1 construct: rat Galpha-i2 (Gnai2, rat); made in house; host or cells: Sf9 insect cells (baculovirus); P2 membranes
As to the kind of experiment: Chimeric human H3 receptor screening GTP binding assay (inhibition of histamine-stimulated GTP-gamma35S binding, Example 8). Format: biochemical. The settings on record: 1 h; assay described in Example 8; symbol "!" in column headed Ki; read-out: Ki ("!": percent inhibition of agonist-induced GTP-gammaS binding to H3). The procedure, abridged: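 Sf9 membranes co-expressing chimeric human H3 receptor and heterotrimeric G-protein (35 μg protein) incubated 60 min at room temperature with 4 μM compound, 1 μM histamine and 125 pM GTP-gamma35S in pH 7.4 buffer with 10 μM GDP. Filter-bound radioactivity, nonspecific (10 μM GTP-gammaS) subtracted, reported as % inhibition of histamine signal.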

A word on the inhibition: it is how much of the control response was suppressed.

Bounds are passed on as bounds.

T1 sequence (Q9Y5N1 with tags, fused parts or gaps): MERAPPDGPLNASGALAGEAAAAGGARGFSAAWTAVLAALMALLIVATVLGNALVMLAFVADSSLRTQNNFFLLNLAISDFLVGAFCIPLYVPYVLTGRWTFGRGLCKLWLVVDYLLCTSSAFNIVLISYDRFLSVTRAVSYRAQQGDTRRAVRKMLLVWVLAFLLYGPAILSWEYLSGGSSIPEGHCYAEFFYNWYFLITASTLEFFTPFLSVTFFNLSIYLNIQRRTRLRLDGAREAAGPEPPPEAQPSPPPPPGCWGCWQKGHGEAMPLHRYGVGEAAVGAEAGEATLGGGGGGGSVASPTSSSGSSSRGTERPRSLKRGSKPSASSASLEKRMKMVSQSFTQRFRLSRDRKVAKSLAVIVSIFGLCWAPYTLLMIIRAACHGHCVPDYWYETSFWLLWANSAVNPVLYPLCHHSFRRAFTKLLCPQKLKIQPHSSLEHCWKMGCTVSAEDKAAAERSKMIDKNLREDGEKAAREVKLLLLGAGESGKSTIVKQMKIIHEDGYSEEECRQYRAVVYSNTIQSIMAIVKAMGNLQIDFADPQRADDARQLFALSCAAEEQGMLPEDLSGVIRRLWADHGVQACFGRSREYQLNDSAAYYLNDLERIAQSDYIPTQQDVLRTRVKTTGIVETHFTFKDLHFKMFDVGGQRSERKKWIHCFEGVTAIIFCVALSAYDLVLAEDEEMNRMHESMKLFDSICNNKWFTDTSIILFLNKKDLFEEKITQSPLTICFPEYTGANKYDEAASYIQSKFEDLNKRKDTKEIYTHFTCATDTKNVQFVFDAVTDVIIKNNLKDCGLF

`O=C(c1sccc1Br)N1CCc2cnc(N3CCN(C4CCC4)CC3)nc2CC1` [Compound 450, 7-[(3-bromo-2-thienyl)carbonyl]-2-(4-cyclobutylpiperazin-1-yl)-6,7,8,9-tetrahydro-5H-pyrimido[4,5-d]azepine]: the inhibition at 4 µM is not below 90%.

Consider `CCc1ccc(C(=O)N2CCc3cnc(N4CCN(C5CCC5)CC4)nc3CC2)s1` [Compound 451, 2-(4-cyclobutylpiperazin-1-yl)-7-[(5-ethyl-2-thienyl)carbonyl]-6,7,8,9-tetrahydro-5H-pyrimido[4,5-d]azepine], for which the inhibition at 4 µM is not below 90%.

Take `CCCc1ccc(C(=O)N2CCc3cnc(N4CCN(C5CCC5)CC4)nc3CC2)s1` [Compound 452, 2-(4-cyclobutylpiperazin-1-yl)-7-[(5-propyl-2-thienyl)carbonyl]-6,7,8,9-tetrahydro-5H-pyrimido[4,5-d]azepine]: the inhibition at 4 µM was not below 90%.

On to `O=C(c1ccc(Cl)s1)N1CCc2cnc(N3CCN(C4CCC4)CC3)nc2CC1` [Compound 453, 7-[(5-chloro-2-thienyl)carbonyl]-2-(4-cyclobutylpiperazin-1-yl)-6,7,8,9-tetrahydro-5H-pyrimido[4,5-d]azepine], for which the inhibition at 4 µM was not below 90%.

As to `CCCCn1c(C(=O)N2CCc3cnc(N4CCN(C5CCC5)CC4)nc3CC2)cc2ccccc21` [Compound 454, 7-[(1-butyl-1H-indol-2-yl)carbonyl]-2-(4-cyclobutylpiperazin-1-yl)-6,7,8,9-tetrahydro-5H-pyrimido[4,5-d]azepine], the inhibition at 4 µM is not below 90%.

For the compound `O=C(c1cc2ccccc2s1)N1CCc2cnc(N3CCN(C4CCC4)CC3)nc2CC1` [Compound 455, 7-(1-benzothien-2-ylcarbonyl)-2-(4-cyclobutylpiperazin-1-yl)-6,7,8,9-tetrahydro-5H-pyrimido[4,5-d]azepine], the inhibition at 4 µM was not below 90%.

On to `COc1cscc1C(=O)N1CCc2cnc(N3CCN(C4CCC4)CC3)nc2CC1` [Compound 456, 2-(4-cyclobutylpiperazin-1-yl)-7-[(4-methoxy-3-thienyl)carbonyl]-6,7,8,9-tetrahydro-5H-pyrimido[4,5-d]azepine], for which the inhibition at 4 µM is not below 90%.

As to `O=C(c1sc2ccccc2c1Cl)N1CCc2cnc(N3CCN(C4CCC4)CC3)nc2CC1` [Compound 457, 7-[(3-chloro-1-benzothien-2-yl)carbonyl]-2-(4-cyclobutylpiperazin-1-yl)-6,7,8,9-tetrahydro-5H-pyrimido[4,5-d]azepine], the inhibition at 4 µM is not below 90%.

For `CSc1sc(C(=O)N2CCc3cnc(N4CCN(C5CCC5)CC4)nc3CC2)c2c1C=CCC2` [Compound 458, 2-(4-cyclobutylpiperazin-1-yl)-7-{[3-(methylthio)-6,7-dihydro-2-benzothien-1-yl]carbonyl}-6,7,8,9-tetrahydro-5H-pyrimido[4,5-d]azepine], the inhibition at 4 µM is not below 90%.

With `Cc1cc(C(=O)N2CCc3cnc(N4CCN(C5CCC5)CC4)nc3CC2)c(C)n1C` [Compound 459, 2-(4-cyclobutylpiperazin-1-yl)-7-[(1,2,5-trimethyl-1H-pyrrol-3-yl)carbonyl]-6,7,8,9-tetrahydro-5H-pyrimido[4,5-d]azepine], the inhibition at 4 µM was not below 90%.

Turning to `Cn1nc(C(F)(F)F)cc1-c1ccc(C(=O)N2CCc3cnc(N4CCN(C5CCC5)CC4)nc3CC2)s1` [Compound 460, 2-(4-cyclobutylpiperazin-1-yl)-7-({5-[1-methyl-3-(trifluoromethyl)-1H-pyrazol-5-yl]-2-thienyl}carbonyl)-6,7,8,9-tetrahydro-5H-pyrimido[4,5-d]azepine], the inhibition at 4 µM is not below 90%.

Take `Cn1c(C(=O)N2CCc3cnc(N4CCN(C5CCC5)CC4)nc3CC2)cc2ccccc21` [Compound 461, 2-(4-cyclobutylpiperazin-1-yl)-7-[(1-methyl-1H-indol-2-yl)carbonyl]-6,7,8,9-tetrahydro-5H-pyrimido[4,5-d]azepine]: the inhibition at 4 µM was not below 90%.

Turning to `CCn1c(C(=O)N2CCc3cnc(N4CCN(C5CCC5)CC4)nc3CC2)cc2ccccc21` [Compound 462, 2-(4-cyclobutylpiperazin-1-yl)-7-[(1-ethyl-1H-indol-2-yl)carbonyl]-6,7,8,9-tetrahydro-5H-pyrimido[4,5-d]azepine], the inhibition at 4 µM was not below 90%.

As for `CCCn1c(C(=O)N2CCc3cnc(N4CCN(C5CCC5)CC4)nc3CC2)cc2ccccc21` [Compound 463, 2-(4-cyclobutylpiperazin-1-yl)-7-[(1-propyl-1H-indol-2-yl)carbonyl]-6,7,8,9-tetrahydro-5H-pyrimido[4,5-d]azepine], the inhibition at 4 µM was not below 90%.

Turning to `O=C(c1ccsc1)N1CCc2cnc(N3CCN(C4CCC4)CC3)nc2CC1` [Compound 464, 2-(4-cyclobutylpiperazin-1-yl)-7-(3-thienylcarbonyl)-6,7,8,9-tetrahydro-5H-pyrimido[4,5-d]azepine], the inhibition at 4 µM was not below 90%.

With `Cc1cc(C(=O)N2CCc3cnc(N4CCN(C5CCC5)CC4)nc3CC2)c(C)o1` [Compound 465, 2-(4-cyclobutylpiperazin-1-yl)-7-(2,5-dimethyl-3-furoyl)-6,7,8,9-tetrahydro-5H-pyrimido[4,5-d]azepine], the inhibition at 4 µM was not below 90%.

As to `Cc1oc(C(C)(C)C)cc1C(=O)N1CCc2cnc(N3CCN(C4CCC4)CC3)nc2CC1` [Compound 466, 7-(5-tert-butyl-2-methyl-3-furoyl)-2-(4-cyclobutylpiperazin-1-yl)-6,7,8,9-tetrahydro-5H-pyrimido[4,5-d]azepine], the inhibition at 4 µM is not below 90%.

With `Cc1cc(C(=O)N2CCc3cnc(N4CCN(C5CCC5)CC4)nc3CC2)c(C(F)(F)F)o1` [Compound 467, 2-(4-cyclobutylpiperazin-1-yl)-7-[5-methyl-2-(trifluoromethyl)-3-furoyl]-6,7,8,9-tetrahydro-5H-pyrimido[4,5-d]azepine], the inhibition at 4 µM is not below 90%.

As for `Cc1cc(C(=O)N2CCc3cnc(N4CCN(C5CCC5)CC4)nc3CC2)oc1C` [Compound 468, 2-(4-cyclobutylpiperazin-1-yl)-7-(4,5-dimethyl-2-furoyl)-6,7,8,9-tetrahydro-5H-pyrimido[4,5-d]azepine], the inhibition at 4 µM was not below 90%.

As for `Cc1oc(-c2ccccc2)cc1C(=O)N1CCc2cnc(N3CCN(C4CCC4)CC3)nc2CC1` [Compound 469, 2-(4-cyclobutylpiperazin-1-yl)-7-(2-methyl-5-phenyl-3-furoyl)-6,7,8,9-tetrahydro-5H-pyrimido[4,5-d]azepine], the inhibition at 4 µM was not below 90%.

Consider `O=C(c1cc(-c2ccc(Cl)cc2)oc1C(F)(F)F)N1CCc2cnc(N3CCN(C4CCC4)CC3)nc2CC1` [Compound 470, 7-[5-(4-chlorophenyl)-2-(trifluoromethyl)-3-furoyl]-2-(4-cyclobutylpiperazin-1-yl)-6,7,8,9-tetrahydro-5H-pyrimido[4,5-d]azepine], for which the inhibition at 4 µM is not below 90%.

Take `Cc1oc(-c2ccc(Cl)cc2)cc1C(=O)N1CCc2cnc(N3CCN(C4CCC4)CC3)nc2CC1` [Compound 471, 7-[5-(4-chlorophenyl)-2-methyl-3-furoyl]-2-(4-cyclobutylpiperazin-1-yl)-6,7,8,9-tetrahydro-5H-pyrimido[4,5-d]azepine]: the inhibition at 4 µM is not below 90%.

`O=C(c1ccc(Oc2cc(Cl)cc(Cl)c2)o1)N1CCc2cnc(N3CCN(C4CCC4)CC3)nc2CC1` [Compound 472, 2-(4-cyclobutylpiperazin-1-yl)-7-[5-(3,5-dichlorophenoxy)-2-furoyl]-6,7,8,9-tetrahydro-5H-pyrimido[4,5-d]azepine]: the inhibition at 4 µM was not below 90%.

In the case of `O=C(c1cc2ccccc2o1)N1CCc2cnc(N3CCN(C4CCC4)CC3)nc2CC1` [Compound 473, 7-(1-benzofuran-2-ylcarbonyl)-2-(4-cyclobutylpiperazin-1-yl)-6,7,8,9-tetrahydro-5H-pyrimido[4,5-d]azepine], the inhibition at 4 µM was not below 90%.

In the case of `O=C(c1ccc(OCC(F)(F)F)nc1)N1CCc2cnc(N3CCN(C4CCC4)CC3)nc2CC1` [Compound 474, 2-(4-cyclobutylpiperazin-1-yl)-7-{[6-(2,2,2-trifluoroethoxy)pyridin-3-yl]carbonyl}-6,7,8,9-tetrahydro-5H-pyrimido[4,5-d]azepine], the inhibition at 4 µM is not below 90%.

`O=C(c1cncc(C#Cc2ccccc2)c1)N1CCc2cnc(N3CCN(C4CCC4)CC3)nc2CC1` [Compound 475, 2-(4-cyclobutylpiperazin-1-yl)-7-{[5-(phenylethynyl)pyridin-3-yl]carbonyl}-6,7,8,9-tetrahydro-5H-pyrimido[4,5-d]azepine]: the inhibition at 4 µM was not below 90%.

With `O=C(c1cnccc1C(F)(F)F)N1CCc2cnc(N3CCN(C4CCC4)CC3)nc2CC1` [Compound 476, 2-(4-cyclobutylpiperazin-1-yl)-7-{[4-(trifluoromethyl)pyridin-3-yl]carbonyl}-6,7,8,9-tetrahydro-5H-pyrimido[4,5-d]azepine], the inhibition at 4 µM is not below 90%.

Take `O=C(c1cccnc1Cl)N1CCc2cnc(N3CCN(C4CCC4)CC3)nc2CC1` [Compound 477, 7-[(2-chloropyridin-3-yl)carbonyl]-2-(4-cyclobutylpiperazin-1-yl)-6,7,8,9-tetrahydro-5H-pyrimido[4,5-d]azepine]: the inhibition at 4 µM is not below 90%.

For `O=C(c1ccc(Cl)nc1)N1CCc2cnc(N3CCN(C4CCC4)CC3)nc2CC1` [Compound 478, 7-[(6-chloropyridin-3-yl)carbonyl]-2-(4-cyclobutylpiperazin-1-yl)-6,7,8,9-tetrahydro-5H-pyrimido[4,5-d]azepine], the inhibition at 4 µM was not below 90%.

`CSc1ncc(Cl)c(C(=O)N2CCc3cnc(N4CCN(C5CCC5)CC4)nc3CC2)n1` [Compound 479, 7-{[5-chloro-2-(methylthio)pyrimidin-4-yl]carbonyl}-2-(4-cyclobutylpiperazin-1-yl)-6,7,8,9-tetrahydro-5H-pyrimido[4,5-d]azepine]: the inhibition at 4 µM was not below 90%.
